Laboratory results as given in US11987788B2, “Methods and compositions for changing the composition of the skin microbiome using complex mixtures of bacterial strains” (S-Biomedic NV, priority 2015, dated 2024).
Values after ≈ are worked out from the molar mass of the structure shown. Read-outs that look alike come from different tables or passages of the source. No end group written: not given here.

Legend:
facial acne vulgaris = experiment: Pilot clinical study, lesion count and irritation evaluated by a dermatologist; assay type: in vivo, human
[1] = tested on: Propionibacterium acnes (ATCC 11827); experiment: Minimum Inhibitory Concentration Assay; assay type: cell-based; details: ATCC 11827 (A5), visible growth, duplicate
Description: (§1) The Minimum Inhibitory Concentration Assay assessed the in vitro antimicrobial potency of the test compound. […] 4 compounds were tested, which are commonly used in cosmetics or to treat acne for their effect on the growth of different P. acnes strains. The 4 tested compounds were glycolic acid, salicylic acid, lactic acid and hyaluronic acid. The first 3 are commonly used in products to treat acne, while the last one is a commonly used cosmetic compound. Any other compound can be tested the same way. The test substance was dissolved in water or DMSO (for salicylic acid) and 4 μl of the test substance was added to 196 μl of growth medium resulting in the highest tested compound concentration. Then this concentration was diluted by 2-fold serial titrations, for a total of 11 concentrations and the final vehicle concentration was 2 percent. Following incubation, the test plate was visually examined and each well was scored for growth or complete inhibition of growth; then the MIC was recorded. Each test substance was evaluated in duplicate. Vehicle-control and an active reference agent (clindamycin) were used as blank and positive controls, respectively. The following three strains were used to assess whether strain specific differences in the tolerance to these compounds could be observed: • Propionibacterium acnes (ATCC 11827)—A5 • Propionibacterium acnes (ATCC 29399) • Propionibacterium acnes (ATCC 6919)—A1 The final concentrations for each tested compound were: • 1. […] Lactic acid: 100% (13.4M): […]

[2] = tested on: Propionibacterium acnes (ATCC 29399); experiment: Minimum Inhibitory Concentration Assay; assay type: cell-based; details: duplicate
Description: as §1

[3] = tested on: Propionibacterium acnes (ATCC 6919); experiment: Minimum Inhibitory Concentration Assay; assay type: cell-based; details: ATCC 6919 (A1), visible growth, duplicate
Description: as §1

acne = details: McLane, 2001; cited from earlier work
Seb E6/E7 sebocytes [4] = tested on: Seb E6/E7 sebocytes
Seb E6/E7 sebocytes [5] = experiment: Neutral lipid staining with HCS LipidTOX (lipid production); assay type: cell-based; details: 72 h stimulation; whole-well 5× and individual-cell 20× analysis
Description: An image at 5× magnification was taken from each well and then the relative fluorescence intensity quantified. Each condition was measured in triplicates. As a control, the cells were either unstimulated (blank) or stimulated with cis-9, cis-12 linoleic acid (not shown).
As a negative control, a non-stimulated blank was used and as positive control, the cells were stimulated for lipogenesis with cis-9, cis-12 linoleic acid.
Seb E6/E7 cells, which were seeded in 96-well plates and stimulated as described above were then analyzed for the induction lipid production. After 72 h of stimulation, the cells were stained with HCS LipidTOX deep red neutral lipid stain from Thermo Fisher (product no. H34477) according to the manufacturer's instructions. A final dilution of 1:450 of HCS LipidTOX dye in PBS was used for the staining. The amount of fluorescence was then evaluated using an inverted fluorescence microscope. In one approach, a complete well was imaged at 5× magnification and the total fluorescence in the image was quantified. A clear dose-dependent induction of lipid production was seen. […]
Alternatively, the fluorescent signal of individual cells, which were randomly selected from a higher magnification images, were quantified. 10 cells per image and 3 wells per condition were quantified. […]

P. acnes = details: Allgaier et al., 1985; cited from earlier work
[6] = Cutibacterium acnes, ATCC29399, visible growth

Question: Which results are given for O=C(OOC(=O)c1ccccc1)c1ccccc1 [Benzoyl Peroxide, Benzoyl peroxide]?
Answer: subjects with reduced lesions (facial acne vulgaris; end of week 1, of 10 subjects): 4 subjects; subjects improved (dermatologist evaluation, lesions) (facial acne vulgaris; week 1 (day 7), end of 7-day Benzoyl Peroxide phase, 10 subjects): 40%

Question: Which results are given for O=C(O)CO [Glycolic acid, glycolic acid]?
Answer: MIC ([1]; Cutibacterium acnes, ATCC11827): 18 mM (≈ 1370 µg/mL); MIC [2, 6]: 60 mM (≈ 4560 µg/mL); MIC ([3]; Cutibacterium acnes, ATCC6919): 18 mM (≈ 1370 µg/mL)

Question: For CC1=C(/C=C/C(C)=C/C=C/C(C)=C\C(=O)O)C(C)(C)CCC1 [Isotretinoin], which side effects (acne) is on record?
Answer: Its side effects is “causes skin irritation and also has teratogenic effects”.

Question: Which “cytotoxic effect (low XTT metabolic activity with high LDH activity)” value (Seb E6/E7 sebocytes [4]; 5 days exposure, different concentrations, triplicates) does the source give for CCCCC/C=C\C/C=C\CCCCCCCC(=O)O [cis-9, cis-12 linoleic acid] here?
Answer: The value was “no significant effect”.

Question: And the “induction of lipogenesis (relative fluorescence of neutral lipids)” value (Seb E6/E7 sebocytes [5])?
Answer: The value was “induce lipogenesis”.

Question: With CC(O)C(=O)O (centres unmarked) [lactic acid] as the molecule, how does the “MIC (inhibition of growth)” value [1] read?
Answer: Its value is 0.2%.

Question: And the “MIC (inhibition of growth)” value ([2]; visible growth)?
Answer: The value was 0.6%.

Question: What about the “MIC (inhibition of growth)” value [3] of the same molecule?
Answer: The value was 0.2%.

Question: With O=C(O)c1ccccc1O [salicylic acid] as the molecule, how does the MIC ([1]; Cutibacterium acnes, ATCC11827) read?
Answer: Its MIC is > 6 mM.

Question: What about the MIC [2, 6] of the same molecule?
Answer: The MIC was > 6 mM.

Question: What about the MIC ([3]; Cutibacterium acnes, ATCC6919) of the same molecule?
Answer: The MIC was > 6 mM.

Question: For CCCCC/C=C\C=C\CCCCCCCCC(=O)O [trans-10, cis 12 linoleic acid, trans-10, cis-12 linoleic acid], which “cytotoxic effect (low XTT metabolic activity with high LDH activity)” value (Seb E6/E7 sebocytes [4]) is on record?
Answer: Its value is “clear dose-dependent cytotoxic effect”.

Question: And the “induction of lipogenesis (relative fluorescence of neutral lipids)” value (Seb E6/E7 sebocytes [5])?
Answer: Its value is “dose-dependent induction of lipogenesis”.

Question: With “Epidermin: lantibiotic, antibiotic-like peptide naturally produced by S. epidermidis (IASKFICTPGCAKTGSFNSYCC; also: lantibiotic: lanthionine-type bridges, places not given here; UniProt P08136 31-52, looked up)” as the molecule, how does the “activity against P. acnes” value (P. acnes) read?
Answer: The value was “highly active”.

Question: Which MIC [1] does the source give for hyaluronic acid here?
Answer: Its MIC is > 6e-05 mM.

Question: What about the MIC ([2]; visible growth) of the same molecule?
Answer: Its MIC is > 6e-05 mM.

Question: What about the MIC [3] of the same molecule?
Answer: The MIC was > 6e-05 mM.
